These results are taken from ChEMBL document CHEMBL1201862, “PubChem BioAssay data set” (2004).

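Method: 48-hour compound exposure of cells in 96-well plates, five concentrations, linear interpolation of endpoints. Here, GI50 denotes the concentration required for 50% inhibition of growth.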 The source made the active and inactive calls. Cut-off read from the data, not from the text of the source: active = GI50 up to about 1.1 µM and inactive = higher.

Some test systems named below: MDA-MB-435; MDA-N; DU-145; MDA-MB-231.
Holding throughout (test): inhibition of tumour cell growth, NCI panel, 48 h

Consider `CC1(CO)OC(n2cnc3cncnc32)CC1O` (configuration not stated), for which the GI50 with MDA-MB-435, in the assay on MDA-N, with DU-145 and in the assay on MDA-MB-231 was > 100 µM (inactive) in each case.
As for `Cc1ccc(/C=C/C(=O)c2cc(CN(C)C)c(O)c(CN(C)C)c2)cc1`, the GI50 is 21.4 µM (inactive) in the assay on MDA-MB-435, 15.2 µM (inactive) with MDA-N, 30.2 µM (inactive) in the assay with DU-145 and 13.8 µM (inactive) in the assay with MDA-MB-231.
With `COc1ccc2nc3cc([N+](=O)[O-])ccc3c(Nc3ccc(S(=O)(=O)Nc4ncccn4)cc3)c2c1`, the GI50 was > 67.3 µM (inactive) in the assay with MDA-MB-435, > 89.1 µM (inactive) in the assay on MDA-N, > 100 µM (inactive) with DU-145 and > 60.1 µM (inactive) with MDA-MB-231.
As for `Clc1ccc(Cc2nc3cc(Cl)c(Cl)cc3n2CC2CCCN3CCCCC23)cc1Cl` (configuration not stated), the GI50 is 3.83 µM (inactive) in the assay with MDA-MB-435, 4.79 µM (inactive) in the assay with MDA-N, 4.79 µM (inactive) with DU-145 and 3.27 µM (inactive) with MDA-MB-231.
As to `O=C(COc1ccc(OCC(=O)NNC2=NC(c3cc(F)c(Cl)cc3Cl)CS2)c(Cl)c1)NNC1=NC(c2cc(F)c(Cl)cc2Cl)CS1` (configuration not stated), the GI50 is 16.7 µM (inactive) in the assay with MDA-MB-435, 28.4 µM (inactive) with MDA-N, 22.8 µM (inactive) in the assay on DU-145 and 20 µM (inactive) in the assay on MDA-MB-231.
For `Cc1ccc(NC(=O)c2cc3ccccc3c(/N=N/c3cc(S(=O)(=O)O)ccc3O)c2O)c(C)c1` the same measures were 19.7 µM (inactive), 32.2 µM (inactive), 19.2 µM (inactive) and 26.1 µM (inactive).
As to `CC12C(=O)OC(=O)C1(C)C1C=CC2O1` (configuration not stated), the GI50 in the assay with MDA-MB-435 was > 100 µM (inactive); in the assay with MDA-N it was > 100 µM (inactive); in the assay with DU-145 it was > 100 µM (inactive); with MDA-MB-231, 42.6 µM (inactive).
Take `CN(CCCN=C=S)CCCN1c2ccccc2CCc2ccccc21`: the GI50 is 1.79 µM (inactive) in the assay on MDA-MB-435, 1.71 µM (inactive) with MDA-N, 1.83 µM (inactive) with DU-145 and 1.8 µM (inactive) with MDA-MB-231.
As for `CC(C)(C)OC(=O)N1CCC(NC(=O)NC2CCN(C(=O)OC(C)(C)C)CC2)CC1`, the GI50 in the assay with MDA-MB-435, with MDA-N and in the assay with MDA-MB-231 was > 100 µM (inactive) each time.
Take `Cc1cc2c(cc1C)[n+]([O-])c(C(=O)N1CCN(c3ccc([N+](=O)[O-])cc3)CC1)c(C)[n+]2[O-]`: the GI50 in the assay with MDA-MB-435 was > 100 µM (inactive); in the assay on MDA-N, > 100 µM (inactive); in the assay with DU-145, 29.5 µM (inactive); in the assay on MDA-MB-231, 21.8 µM (inactive).
Regarding `N#Cc1c2c(c(Nc3ccc(F)cc3)n3c1nc1ccccc13)CCCC2`, the GI50 with MDA-MB-435 was > 24.9 µM (inactive); in the assay with MDA-N it was > 28.6 µM (inactive); in the assay with DU-145 it was > 48.5 µM (inactive); with MDA-MB-231 it was > 100 µM (inactive).
Consider `C=C1C[C@@H]2CC[C@@]34CC5O[C@H]6C(O[C@H]7CC[C@H](CC(=O)O[C@@H]8[C@@H](C)[C@@H]9O[C@@H]%10C[C@]%11(C[C@@H]%12O[C@]%13(C[C@H](C)[C@@H]%14O[C@@H]%15CC(C(COC(C)=O)OC(C)=O)O[C@@H]%15C[C@@H]%14O%13)C[C@H](C)[C@@H]%12O%11)O[C@@H]%10C[C@@H]9O[C@H]8CC8O[C@@H](CC[C@@H]1O2)C[C@@H](C)C8(O)CO)O[C@@H]7[C@@H]6O3)[C@H]5O4` (some centres not stated), for which the results for the GI50 with MDA-MB-435, in the assay on DU-145 and with MDA-MB-231 were 0.0826 µM (active), 0.375 µM (active) and > 0.776 µM (active), respectively.
Regarding `CC(C)n1c(=O)n(-c2ccccc2)n(C(C)(C)C)c1=O`, the GI50 in the assay with MDA-N and with MDA-MB-231 was > 100 µM (inactive) throughout.
As for `COC(=O)/C(C#N)=C(\N)c1c(C)c2ccccc2oc1=N`, the GI50 in the assay on MDA-MB-435 was > 100 µM (inactive); in the assay with MDA-N, > 100 µM (inactive); in the assay with DU-145, > 100 µM (inactive); in the assay with MDA-MB-231, 86.7 µM (inactive).
For the compound `COc1cc(/C=C2\C[C@H]3[C@@H]4CCc5cc(O)ccc5[C@H]4CC[C@]3(C)C2=O)cc(OC)c1OC`, the GI50 in the assay with MDA-MB-435 is 16.9 µM (inactive); with MDA-N it was 15.6 µM (inactive); in the assay with DU-145 it was 3.69 µM (inactive); in the assay with MDA-MB-231 it was 14.3 µM (inactive).
As to `S=C1C=C(c2ccccc2)Sc2ccccc2N1`, the GI50 in the assay with MDA-N, in the assay with DU-145 and with MDA-MB-231 was > 100 µM (inactive) throughout.
Turning to `O=C1/C(=C/c2ccc(Cl)cc2)Sc2scc(-c3cccc([N+](=O)[O-])c3)[n+]21`, the GI50 in the assay with MDA-MB-435 was 3.4 µM (inactive); with MDA-N, 3.36 µM (inactive); in the assay on DU-145, 7.11 µM (inactive); in the assay on MDA-MB-231 it was 5.22 µM (inactive).
For `NCc1ccc(-c2ccc(-c3ccc(-c4ccc(CN)s4)s3)s2)s1`, the GI50 in the assay with MDA-MB-435, with MDA-N, in the assay on DU-145 and in the assay with MDA-MB-231 was > 100 µM (inactive) in each case.
Take `Cn1c2ccccc2c2c3c(c4c5ccccc5n(C)c4c21)C(=O)c1ccccc1C3=O`: the GI50 in the assay on MDA-MB-435 was 51.3 µM (inactive); with MDA-N, 72.8 µM (inactive); with DU-145, > 100 µM (inactive); with MDA-MB-231, 19.6 µM (inactive).
Turning to `CCOC(=O)c1cc(-c2ccc(OC)c(OC)c2)cn1C`, the GI50 in the assay with MDA-MB-435, in the assay on MDA-N, in the assay with DU-145 and in the assay with MDA-MB-231 was > 10 µM (inactive) in each case.
Turning to `O=C1OCc2c1cc1cc3c(cc1c2-c1ccc2c(c1)OCO2)OCO3.O=C1OCc2cc3cc4c(cc3c(-c3ccc5c(c3)OCO5)c21)OCO4`, the GI50 is 1.87 µM (inactive) with MDA-MB-435, 1.41 µM (inactive) with MDA-N, 11.3 µM (inactive) in the assay with DU-145 and 2.12 µM (inactive) in the assay with MDA-MB-231.
In the case of `N=C(N)SCCN1CCCCC1`, the GI50 was 19.4 µM (inactive) with MDA-MB-435, 30.2 µM (inactive) in the assay with MDA-N, 24.7 µM (inactive) in the assay with DU-145 and 22.8 µM (inactive) with MDA-MB-231.
In the case of `C#CC1(O)C(COP(=O)(O)OC(COCCCCCCCCCCCCCCCCCC)COP(=O)(O)OCC2OC(n3cc(C)c(=O)[nH]c3=O)CC2N=[N+]=[N-])OC(n2ccc(N)nc2=O)C1O` (configuration not stated), the GI50 in the assay with MDA-MB-435 was 0.859 µM (active); in the assay on MDA-N it was 1.14 µM (inactive); in the assay on DU-145, 0.946 µM (active); with MDA-MB-231, 2.39 µM (inactive).
Take `CC(C)(C)OC(=O)NCCC(=O)NC1(c2cc3ccccc3s2)CCCCC1`: the GI50 with MDA-MB-435 is 17.3 µM (inactive); in the assay with MDA-N, 17.6 µM (inactive); with DU-145, 16.7 µM (inactive); with MDA-MB-231, 19.1 µM (inactive).
Turning to `COc1cc(C2c3cc4c(cc3[C@@H](Nc3ccc(F)cc3)C3COC[C@H]23)OCO4)cc(OC)c1O` (some centres not stated), the GI50 in the assay with MDA-MB-435 was 6.15 µM (inactive); in the assay with MDA-N, 7.66 µM (inactive); in the assay on MDA-MB-231 it was 2.74 µM (inactive).
Regarding `CC1(C)CCSC(/C=C/c2ccccc2)=N1`, the GI50 with MDA-MB-435 was 17.9 µM (inactive); in the assay with MDA-N, 12.4 µM (inactive); in the assay on DU-145, 35.8 µM (inactive); in the assay with MDA-MB-231, 15.7 µM (inactive).
`CC(C)/C(Cl)=N\OC(=O)Nc1ccc(C#N)cc1`: the GI50 in the assay on MDA-MB-435 is 8.04 µM (inactive); in the assay on MDA-N it was 6.01 µM (inactive); with DU-145 it was 18 µM (inactive); in the assay with MDA-MB-231, 14.6 µM (inactive).
Turning to `O=C1NC(=S)NC(=O)C1=Cc1ccc(-c2ccccc2)cc1`, the GI50 with MDA-MB-435 is > 100 µM (inactive); in the assay on MDA-N it was > 100 µM (inactive); in the assay on DU-145 it was > 100 µM (inactive); with MDA-MB-231, 99.8 µM (inactive).
`NS(=O)(=O)c1ccc(NNc2c3ccccc3nc3c(C(=O)Nc4ccc(S(N)(=O)=O)cc4)cccc23)cc1`: the GI50 in the assay with MDA-MB-435 was 49.3 µM (inactive); in the assay on MDA-N it was 65 µM (inactive); with DU-145, 43.8 µM (inactive); in the assay with MDA-MB-231 it was 21.6 µM (inactive).
On to `CC(C)(C)[Si](C)(C)OC1(CCc2ccccc2OS(=O)(=O)C(F)(F)F)CCCC=C1COCc1ccccc1` (configuration not stated), for which the GI50 in the assay on MDA-MB-435, with DU-145 and in the assay with MDA-MB-231 was > 100 µM (inactive) each time.
For the compound `C/C(=N/O)c1cccc(Nc2nc3ccccc3c3[nH]c4ccccc4c23)c1`, the GI50 in the assay on MDA-MB-435 was 2.5 µM (inactive); in the assay with MDA-N, 1.82 µM (inactive); with DU-145, 1.74 µM (inactive); in the assay on MDA-MB-231 it was 2.95 µM (inactive).
On to `CC[C@@H]1ON(C)[C@H]2CN(C)C(=O)[C@@H]12`, for which the GI50 in the assay with MDA-MB-435, in the assay on MDA-N, in the assay with DU-145 and in the assay with MDA-MB-231 was > 100 µM (inactive) in each case.
In the case of `CN1C2CCC1CC(CCNC(c1ccccc1)c1ccccc1)C2` (configuration not stated), the GI50 in the assay on MDA-MB-435 was 6.81 µM (inactive); in the assay on MDA-N, 12.6 µM (inactive); in the assay with DU-145, > 100 µM (inactive); in the assay with MDA-MB-231, 22.2 µM (inactive).
For `Cc1n[nH]c(=O)n1N=C(c1ccccc1)c1ccccc1` the same measures were > 100 µM (inactive), > 100 µM (inactive), > 100 µM (inactive) and > 100 µM (inactive).
Turning to `COc1cc2cc(C(=O)N3C[C@@H](CCl)c4c3cc(N)c3ccccc43)[nH]c2c(OC)c1OC`, the GI50 in the assay with MDA-MB-435 is 0.000269 µM (active); with MDA-N it was 0.000296 µM (active); with DU-145, < 0.01 µM (active); in the assay with MDA-MB-231 it was 0.00172 µM (active).
For `Cc1ccc(-c2cc(=O)c(=O)[nH][nH]2)cc1`, the GI50 in the assay with MDA-MB-435, in the assay on MDA-N, in the assay on DU-145 and in the assay on MDA-MB-231 was > 100 µM (inactive) in each case.
For `COc1ccc(NC(C)=O)cc1N1C(=O)/C(=C\c2cc(OC)c(OC)c(OC)c2)S(=O)(=O)C1c1ccccc1` (configuration not stated), the GI50 was 39.7 µM (inactive) in the assay on MDA-MB-435, 34.1 µM (inactive) in the assay on MDA-N, 75 µM (inactive) in the assay on DU-145 and 74.3 µM (inactive) in the assay with MDA-MB-231.
Regarding `CC(C)CCCC(C)[C@H]1CC[C@H]2[C@@H]3CC[C@H]4C[C@@H](CCC=C(c5cc(Cl)c(O)c(C(=O)O)c5)c5cc(Cl)c(O)c(C(=O)O)c5)CC[C@]4(C)[C@H]3CC[C@]12C` (some centres not stated), the GI50 in the assay on MDA-MB-435, in the assay on DU-145 and in the assay on MDA-MB-231 was > 50 µM (inactive) each time.
Consider `CC1(C)OCC=CCO1`, for which the GI50 in the assay with MDA-MB-435, with MDA-N and in the assay with DU-145 was > 100 µM (inactive) each time.
